Data taken from patent US20070208040A1, “A2A ADENOSINE RECEPTOR ANTAGONISTS” (priority 2006, published 2007).

What follows are compounds tested against A2A adenosine receptor (UniProt P29274) (assay: A2A radioligand binding assay (displacement of 3H-MSX-2)). Settings: displacement of 2 nM 3H-MSX-2 from 15 ug A2A membrane, 23° C., 2 hours.
Design: species or system human
Excerpt: A tritiated adenosine A2A antagonist, 3-(3-hydroxypropyl)-7-methyl-8-(m-methoxystyryl)-1-propargylxanthine, (3H-MSX-2, specific activity: 80 Ci/mmol), was purchased from American Radiolabeled Chemicals, Inc (St. Louis, Mo.). A tritiated adenosine A1 antagonist, 1,3-Dipropyl-8-cyclopentylxanthine ([^3H]DPCPX, specific activity: 120 Ci/mmol) was purchased from Perkin Elmer (Boston, Mass.). A tritiated adenosine A2a antagonist, 4-(2-[7-amino-2-(2-furyl)[1,2,4]triazolo[2,3-a][1,3,5]triazin-5-ylamino]ethyl)phenol ([^3H]ZM241385 specific activity: 27.4 Ci/mmol) was purchased from American Radiolabeled Chemicals, Inc (St. Louis, Mo.). Adenosine Deaminase (ADA) was purchased from Roche Molecular Biochemicals (Nutley, N.J.). GTP was purchased from Sigma. Concentrated stock solution (10 mM) of compounds was dissolved in dimethylsulfoxide (DMSO), stored at −20° C., and diluted in Tris-EDTA buffer (50 mM Tris and 1 mM EDTA, 10 mM MgCl2, pH 7.4) for use in experiments. The final content of dimethylsulfoxide in Tris-EDTA buffer during experiments was not more than 1%. Male Sprague Dawley rats, weighted 250-400 g, 8-10 weeks old, were purchased from Charles River Labs (Wilmington, Mass.).
HEK293 (Human Embryonic Kidney 293) cells stably expressing human A2A adenosine receptor or human A2B adenosine receptor were maintained in DMEM supplemented with 10% fetal bovine serum, 2 mM L-glutamine, 100 IU/ml penicillin, 50 μg/ml streptomycin and 2 μg/ml puromycin. CHO (Chinese Hamster Ovary) cells stably expressing human A1 adenosine receptor or human A3 adenosine receptor were maintained in F12K medium supplemented with 10% fetal bovine serum, 2 mM L-glutamine, 100 IU penicillin, 50 μg streptomycin and 8 μg/ml puromycin. PC12 (rat pheochromocytoma) cells were cultured in F12K medium supplemented with 10% horse serum and 2.5% fetal bovine serum, 2 mM L-glutamine, 100 IU/ml penicillin, and 50 μg/ml streptomycin. All cells were maintained at 37° C. in a humidified 5% CO2/95% air incubator and recultivated 2 times per week.
Cultured cells in 150 mm^2 dishes were washed once with PBS, detached by scrapping, collected with buffer A (10 mM HEPES, 10 mM EDTA, pH 7.4) containing protease inhibitor cocktail. Cells were then homogenized by a handheld homogenizer at a speed of 4.5 for 1 min. The homogenate was centrifuged by a Beckman ultracentrifuge at a speed of 29,000 × g for 15 min. The pellets were resuspended in buffer HE (10 mM HEPES, 1 mM EDTA, pH 7.4, with protease inhibitor cocktail), centrifuged again at 29,000 × g for 15 min. The crude membrane was resuspended using buffer HE, and protein concentration was measured by the method of Lowery with BSA as standard. Similar procedures were used for membrane preparation for fresh rat tissues. All experimental procedures were done at 4° C. Membranes were aliquot and kept at −80° C.
The binding assays utilized 15 ug of A2A membrane (human recombinant A2A membrane, rat striatal membrane, or PC 12 cell membrane) that had been treated with adenosine deaminase and 50 mM Tris-EDTA buffer (pH=7.4) followed by mixing 2 μL of serially diluted DMSO stock solution of the compounds of this invention at concentrations ranging from 10 μM to 0.1 nM or the control received 2 μL of DMSO alone, then the tritiated antagonist 3-(3-hydroxypropyl)-7-methyl-8-(m-methoxystyryl)-1-propargylxanthine (^3H-MSX-2) in Tris-EDTA buffer (50 mM Tris, 1 mM EDTA, 10 mM MgCl2, pH of 7.4) was added to achieve a final concentration of 2 nM. After incubation at 23° C. for 2 hours, the solutions were filtered using a membrane harvester with multiple washing of the membranes (3×). The filter plates were counted in scintillation cocktail affording the amount of displacement ^3H-MSX-2 by the competitive binding compositions of this invention. Radioligand binding data was analyzed using GraphPad Prism version 4.0 (San Diego, Calif.). […]
Compound CCn1c(=O)[nH]c2sc(-c3ccc(OC)nc3)c(C)c2c1=O [LIV, 3-ethyl-6-(6-methoxy(3-pyridyl))-5-methyl-1,3-dihydrothiopheno[2,3-d]pyrimidine-2,4-dione] has a Ki of 0.406 µM. CCn1c(=O)[nH]c2sc(C)c(C)c2c1=O [XVI, 3-ethyl-5,6-dimethyl-1,3-dihydrothiopheno[2,3-d]pyrimidine-2,4-dione] showed a Ki of 0.699 µM. CCn1c(=O)n(CC(C)C)c(=O)c2c(C)c(-c3ccco3)sc21 [XLIV, 1-ethyl-6-(2-furyl)-5-methyl-3-(2-methylpropyl)-1,3-dihydrothiopheno[2,3-d]pyrimidine-2,4-dione] showed a Ki of 0.457 µM. CCOC(=O)c1sc2[nH]c(=O)n(C)c(=O)c2c1C [XVII, ethyl 3,5-dimethyl-2,4-dioxo-1,3-dihydrothiopheno[2,3-d]pyrimidine-6-carboxylate] was tested, and the Ki was 0.715 µM. With CCCn1c(=O)[nH]c2sc(C3=N[C@@H](C)CO3)c(C)c2c1=O [XLV, 6-((4S)-4-methyl(1,3-oxazolin-2-yl))-5-methyl-3-propyl-1,3-dihydrothiopheno[2,3-d]pyrimidine-2,4-dione] the Ki was 0.095 µM. CCn1c(=O)[nH]c2sc(-c3ncco3)c(C)c2c1=O [V, 3-ethyl-5-methyl-6-(1,3-oxazol-2-yl)-1,3-dihydrothiopheno[2,3-d]pyrimidine-2,4-dione] was tested, and the Ki was 0.134 µM. Cc1c(C2=N[C@@H](C)CO2)sc2[nH]c(=O)n(CC(C)C)c(=O)c12 [LI, 6-((4S)-4-methyl(1,3-oxazolin-2-yl))-5-methyl-3-(2-methylpropyl)-1,3-dihydrothiopheno[2,3-d]pyrimidine-2,4-dione] gave a Ki of 0.048 µM. CCn1c(=O)[nH]c2sc(-c3nc(Cc4ccccc4)no3)c(C)c2c1=O [XX, 3-ethyl-5-methyl-6-[3-benzyl(1,2,4-oxadiazol-5-yl)]-1,3-dihydrothiopheno[2,3-d]pyrimidine-2,4-dione] showed a Ki of 0.805 µM. CCn1c(=O)[nH]c2sc(-c3ccoc3)c(C)c2c1=O [II, 3-ethyl-6-(3-furyl)-5-methyl-1,3-dihydrothiopheno[2,3-d]pyrimidine-2,4-dione] showed a Ki of 0.088 µM. For Cc1c(-c2ncco2)sc2[nH]c(=O)n(CC(C)C)c(=O)c12 [XXIX, 5-methyl-3-(2-methylpropyl)-6-(1,3-oxazol-2-yl)-1,3-dihydrothiopheno[2,3-d]pyrimidine-2,4-dione], the Ki was 0.075 µM. C#CCn1c(=O)c2c(C)csc2n(C)c1=O [LII, 1,5-dimethyl-3-prop-2-ynyl-1,3-dihydrothiopheno[2,3-d]pyrimidine-2,4-dione] was tested, and the Ki was 0.72 µM. For CCn1c(=O)[nH]c2sc(-c3cc(C)cs3)c(C)c2c1=O [XXXI, 3-ethyl-5-methyl-6-(4-methyl(2-thienyl))-1,3-dihydrothiopheno[2,3-d]pyrimidine-2,4-dione], the Ki was 0.15 µM. In the case of CCn1c(=O)c2c(C)c(-c3nccs3)sc2n(C)c1=O [XLVIII, 3-ethyl-1,5-dimethyl-6-(1,3-thiazol-2-yl)-1,3-dihydrothiopheno[2,3-d]pyrimidine-2,4-dione], the Ki is reported as 0.199 µM. In the case of CCn1c(=O)c2c(C)c(-c3cc(C)cs3)sc2n(C)c1=O [XLVII, 3-ethyl-1,5-dimethyl-6-(4-methyl(2-thienyl))-1,3-dihydrothiopheno[2,3-d]pyrimidine-2,4-dione], the Ki is reported as 0.524 µM. Cc1c(-c2cccs2)sc2[nH]c(=O)n(CC3CC3)c(=O)c12 [XXXV, 3-(cyclopropylmethyl)-5-methyl-6-(2-thienyl)-1,3-dihydrothiopheno[2,3-d]pyrimidine-2,4-dione] gave a Ki of 0.195 µM. Compound CNC(=O)c1sc2[nH]c(=O)n(C)c(=O)c2c1C [VIII, (3,5-dimethyl-2,4-dioxo(1,3-dihydrothiopheno[2,3-d]pyrimidin-6-yl))-n-methylcarboxamide] has a Ki of 0.274 µM. CCn1c(=O)[nH]c2scc(-c3ccco3)c2c1=O [VI, 3-ethyl-5-(2-furyl)-1,3-dihydrothiopheno[2,3-d]pyrimidine-2,4-dione] was tested, and the Ki was 0.137 µM. Compound C#CCn1c(=O)[nH]c2scc(C)c2c1=O [IX, 5-methyl-3-prop-2-ynyl-1,3-dihydrothiopheno[2,3-d]pyrimidine-2,4-dione] has a Ki of 0.365 µM. Work on C#CCn1c(=O)c2c(C)c(C(=O)OCC)sc2n(C)c1=O [XXVI, ethyl 1,5-dimethyl-2,4-dioxo-3-prop-2-ynyl-1,3-dihydrothiopheno[2,3-d]pyrimidine-6-carboxylate] yielded a Ki of 0.049 µM. For CCCn1c(=O)[nH]c2sc(C(=O)O)c(C)c2c1=O [XLI, 5-methyl-2,4-dioxo-3-propyl-1,3-dihydrothiopheno[2,3-d]pyrimidine-6-carboxylic acid], the Ki was 0.569 µM. In the case of Cc1csc2[nH]c(=O)n(C)c(=O)c12 [XIII, 3,5-dimethyl-1,3-dihydrothiopheno[2,3-d]pyrimidine-2,4-dione], the Ki is reported as 0.648 µM. Cc1c(-c2ccco2)sc2[nH]c(=O)n(CC3CC3)c(=O)c12 [XXXVI, 3-(cyclopropylmethyl)-5-methyl-6-(2-furyl)-1,3-dihydrothiopheno[2,3-d]pyrimidine-2,4-dione] was tested, and the Ki was 0.17 µM. Work on CCn1c(=O)[nH]c2sc(-c3ccccn3)c(C)c2c1=O [XXXVIII, 3-ethyl-5-methyl-6-(2-pyridyl)-1,3-dihydrothiopheno[2,3-d]pyrimidine-2,4-dione] yielded a Ki of 0.12 µM. CCn1c(=O)[nH]c2sc(C(=O)NC)c(C)c2c1=O [XV, (3-ethyl-5-methyl-2,4-dioxo(1,3-dihydrothiopheno[2,3-d]pyrimidin-6-yl))-n-methylcarboxamide] was tested, and the Ki was 0.676 µM. Compound CCn1c(=O)[nH]c2sc(C3=NCCO3)c(C)c2c1=O [VII, 3-ethyl-5-methyl-6-(1,3-oxazolin-2-yl)-1,3-dihydrothiopheno[2,3-d]pyrimidine-2,4-dione] has a Ki of 0.152 µM. CCn1c(=O)c2c(C)c(-c3ccco3)sc2n(C)c1=O [XXXIX, 3-ethyl-6-(2-furyl)-1,5-dimethyl-1,3-dihydrothiopheno[2,3-d]pyrimidine-2,4-dione] showed a Ki of 0.25 µM. Cc1c(-c2cccs2)sc2[nH]c(=O)n(C)c(=O)c12 [XXXIII, 3,5-dimethyl-6-(2-thienyl)-1,3-dihydrothiopheno[2,3-d]pyrimidine-2,4-dione] gave a Ki of 0.15 µM.
